{"source": "patent US20240391870A1", "about": "(Arcturus Therapeutics, Inc., priority 2023, published 2024)", "key": {"[1]": {"assay": "Lipid nanoparticle size, PDI and encapsulation", "assay_type": "physicochemical", "details": "Table 3"}, "hEPO": {"test_system": "hEPO", "assay": "hEPO mRNA expression evaluation (hEPO-LNPs)", "assay_type": "in vivo, Balb/c mice", "details": "Table 3; 0.3 mg/kg"}, "[2]": {"assay": "Measured pKa in the indicated formulation", "experimental": "Measured pKa values were determined based on the pH measured in the indicated formulation (i.e., EPO or FVII formulation)."}, "[3]": {"assay": "In vivo biodegradability assay (lipid in liver)", "details": "Table 3; liver tissue, 0.3 mg/kg dose"}, "[4]": {"assay": "Lipid nanoparticle size, PDI and encapsulation", "assay_type": "physicochemical", "details": "Table 3; for Size (nm): lipid nanoparticle; for EE %: lipid nanoparticle encapsulation", "protocol": "In the context of nucleic acids, full encapsulation may be determined by performing a membrane-impermeable fluorescent dye exclusion assay, which uses a dye that has enhanced fluorescence when associated with nucleic acid. Encapsulation is determined by adding the dye to a lipid formulation, measuring the resulting fluorescence, and comparing it to the fluorescence observed upon addition of a small amount of nonionic detergent. Detergent-mediated disruption of the lipid layer releases the encapsulated nucleic acid, allowing it to interact with the membrane-impermeable dye. Nucleic acid encapsulation may be calculated as E=(I0−I)/I0, where I and I0 refer to the fluorescence intensities before and after the addition of detergent."}, "factor VII": {"test_system": "factor VII", "assay": "Factor VII knock down evaluation (LNP with FVII siRNA)", "assay_type": "in vivo, Balb/C mice", "details": "Table 3; 0.03 mg/kg", "method_in_brief": "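Female Balb/C mice, 7–8 weeks old, received FVII siRNA lipid nanoparticles intravenously at 0.03 or 0.01 mg/kg. Plasma was collected 48 h later and FVII protein measured by chromogenic assay at 405 nm against a control plasma calibration curve. Levels are relative to saline-treated controls.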"}, "[5]": {"details": "mouse, in vivo"}}, "note": "Read-outs that look alike come from different tables or passages of the source.", "data": [{"smiles": "CCCCCC(C)(C)C(=O)OCC(C)(COC(=O)CCCN(CCCC(=O)OCC(C)(COC(=O)C(C)(C)CCCCC)COC(=O)C(C)(C)CCCCC)C(=O)SCCCN(C)C)COC(=O)C(C)(C)CCCCC", "note": "[Lipid 56]", "values": [{"measurement": "PDI", "setting": "[1]", "value": 0.081}, {"measurement": "EPO expression in ng/mL @ 0.3 mg/kg", "setting": "hEPO", "value": 5463.76, "unit": "ng/mL"}, {"measurement": "pKa", "setting": "[2]", "value": 6.55}, {"measurement": "Invivo lipid degradability ng/g of Liver tissue @ 0.3 mg/kg dose", "setting": "[3]", "value": 81900, "unit": "ng/g"}, {"measurement": "Size (nm)", "setting": "[4]", "value": 67.34, "unit": "nm"}, {"measurement": "EE %", "setting": "[4]", "value": 91.5, "unit": "%"}, {"measurement": "FVII KD % @ 0.03 mg/kg", "setting": "factor VII", "value": 46.3, "unit": "%"}]}, {"smiles": "Cc1ccc(CCC(C)C(=O)OCC(COC(=O)C(C)CCc2ccc(C)cc2)OC(=O)CCCN(CCCC(=O)OC(COC(=O)C(C)CCc2ccc(C)cc2)COC(=O)C(C)CCc2ccc(C)cc2)C(=O)SCCCN(C)C)cc1", "note": "(stereo not shown) [Lipid 63, ((4,4′-((((3-(dimethylamino)propyl)thio)carbonyl)azanediyl)bis(butanoyl))bis(oxy))bis(propane-2,1,3-triyl)tetrakis(2-methyl-4-(p-tolyl)butanoate)]", "values": [{"measurement": "PDI", "setting": "[1]", "value": 0.046}, {"measurement": "Invivo lipid degradability ng/g of Liver tissue @ 0.3 mg/kg dose", "setting": "[5]", "value": "603 ± 57.6", "unit": "ng/g"}, {"measurement": "EPO expression in ng/mL @ 0.3 mg/kg", "setting": "hEPO", "value": 4601, "unit": "ng/mL"}, {"measurement": "Size (nm)", "setting": "[4]", "value": 82.65, "unit": "nm"}, {"measurement": "EE %", "setting": "[4]", "value": 85.9, "unit": "%"}, {"measurement": "FVII KD % @ 0.03 mg/kg", "setting": "factor VII", "value": 76.17, "unit": "%"}]}]}
